From patent publication US20080268076A1, “Composition for Inhibiting Acyl-Coa:Cholesterol Acyltransferase” (priority 2005, published 2008) come the findings set out here.

For orientation: IC50 means the concentration at which inhibition is half-maximal.

The target in this assay is acyl-CoA:cholesterol acyltransferase (ACAT). Description: Assay for ACAT activity with [1-14C]oleoyl-CoA and rat liver microsomal enzyme. The conditions noted are these: for IC50: read-out: IC50 against ACAT, rat liver microsomal enzyme. (Liver microsomes are a subcellular fraction often used to study metabolism.)

Procedure: The livers were removed from Male Sprague-Dawley rats (250-300 g), washed with microsome buffer A (0.25 M sucrose, 1 mM EDTA, 0.01 M Tris-HCl, pH 7.4), finely fractioned with scissors, and homogenized using a Teflon-glass homogenizer.
A reaction solution was prepared by mixing 10.0 μl of the sample, 4.0 μl of a rat liver microsomal enzyme of rat, 20.0 μl of an assay buffer [0.5 M KH2PO4, 10 mM DTT, pH 7.4], 15.0 μl of 40 mg/me BSA (essentially fatty acid free), 2.0 μl of 20 mg/me cholesterol, and 41.0 μl of distilled water, and subjected to pre-reaction at 37° C. for 20 min. To this enzymatic solution was added 8.0 μl of [1-^14C]oleoyl-CoA (0.05 μCi, final conc. 10 μM), and enzyme reaction was carried out at 37° C. for 25 min and terminated with 1 ml of isopropanol-heptane (4:1 v/v). Following the addition of 0.6 ml of heptane and 0.4 ml of five fold-diluted assay buffer, centrifugation was performed to separate the organic solvent. 100 μl of the supernatant was mixed well with 3 ml of Lipoluma scintillation cocktail and radioactivity was measured using a liquid scintillation counter.
Activity of inhibiting ACAT was quantified as radioactivity detected in the product of the reaction between the radio-labeled substrate and the enzyme in the presence of the assay samples, and percentage activity inhibition was calculated according to Equation 1 as follows.
CPM (T): CPM detected upon co-existence of sample and enzyme
CPM (C1): CPM upon existence of enzyme alone in the absence of sample
CPM (C2): CPM detected upon existence of sample alone in the absence of enzyme
CPM (B): CPM detected in the absence of both enzyme and sample.

For the molecule obovatol [reference compound], the IC50 turned out to be 44 µM. For `CCCCC/C=C/C=C/C(=O)NCC(C)C` [Chemical Formula 5, pellitorin], the IC50 was found to be 40.4 µM. Regarding `CC(C)CNC(=O)/C=C/CCCCCC/C=C/c1ccc2c(c1)OCO2` [Chemical Formula 4, piperchabamide D], the IC50 was found to be 11.5 µM. On to `CC(C)CNC(=O)/C=C/C=C/CCCC/C=C/c1ccc2c(c1)OCO2` [Chemical Formula 2, pipercide], for which the IC50 was determined as 3.7 µM. Also, the “inhibitory activity relative to obovatol” value (ACAT inhibition, compared with the positive control obovatol) was determined as 12 times. Turning to `CC(C)CNC(=O)/C=C/C=C/CC/C=C/c1ccc2c(c1)OCO2` [Chemical Formula 1, retrofractamide A], the IC50 is 24.5 µM. On to `O=C(/C=C/CCCCCCc1ccc2c(c1)OCO2)N1CCCCC1` [Chemical Formula 3, piperrolein B], for which the IC50 was found to be 87.5 µM.
